Measurements taken from patent US20250304563A1, “ACTIVATORS OF EFFECTOR T CELLS” (Orum Therapeutics, Inc., priority 2022, published 2025).

Columns and labels:
[1] = molecular target: Cbl-b (36-427 aa truncated form, N-terminus Avi-tag) (Homo sapiens (Human), UniProt Q13191); assay: Cbl-b binding: TR-FRET displacement of BODIPY-FL probe
Outline: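 IC50 from loss of terbium–BODIPY-FL TR-FRET signal as compounds compete off a fluorescent Cbl-b inhibitor probe (1 uM) for 1 h at RT. Protein: N-Avi-tagged human Cbl-b 36-427 on streptavidin-terbium, 20 mM HEPES pH 7.5 buffer.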

[2] = tested on: Human primary T cells; assay: T cell activation: secreted IL-2; assay type: cell-based; settings: 48 hours, fold over background normalized to Compound 141A; for IL-2 1 nM: 1 nM compound; for IL-2 10 nM: 10 nM compound; for IL-2 100 nM: 100 nM compound
Outline: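 IL-2 values are fold over anti-CD3/CD28 background, normalized to a reference compound and sorted into ranges. They come from supernatants of human pan-T cells captured on anti-CD3-coated plates and exposed 48 h, 37° C., to duplicate compound dilutions, measured with cytometric beads.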

[3] = tested on: Human primary T cells; assay: T cell activation: secreted IFN-y; assay type: cell-based; settings: 48 hours, fold over background normalized to Compound 141A; for IFN-y 1 nM: 1 nM compound; for IFN-y 10 nM: 10 nM compound; for IFN-y 100 nM: 100 nM compound
Outline: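 Values are binned ranges (A–D) of fold increase over anti-CD3/CD28 background, normalized to a reference compound, for IFN-γ in supernatants measured by bead array. Pan-T cells from donor PBMC or LeukoPaks were stimulated on anti-CD3-coated wells (10 μg/mL coating) in serum-free medium with compound for 48 h at 37 °C.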

[4] = tested on: Human primary T cells; assay: T cell activation: CD69 surface expression by flow cytometry; assay type: cell-based; settings: fold over anti-CD3 stimulated background normalized to Compound 141A; for CD69 10 nM: 10 nM compound; for CD69 100 nM: 100 nM compound; for CD69 1 nM: 1 nM compound
Outline: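 Read-out is flow-cytometric CD69 surface staining, expressed as fold increase over anti-CD3-stimulated background and normalized to Compound 141A. Human pan T cells from PBMC or LeukoPaks were plated on OKT3-coated wells in serum-free XVivo-15. Compound dilutions were added for 48 h at 37° C, 5% CO2.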

Cbl-b (36-427 aa truncated form, N-terminus Avi-tag), sequence (Q13191 36-427): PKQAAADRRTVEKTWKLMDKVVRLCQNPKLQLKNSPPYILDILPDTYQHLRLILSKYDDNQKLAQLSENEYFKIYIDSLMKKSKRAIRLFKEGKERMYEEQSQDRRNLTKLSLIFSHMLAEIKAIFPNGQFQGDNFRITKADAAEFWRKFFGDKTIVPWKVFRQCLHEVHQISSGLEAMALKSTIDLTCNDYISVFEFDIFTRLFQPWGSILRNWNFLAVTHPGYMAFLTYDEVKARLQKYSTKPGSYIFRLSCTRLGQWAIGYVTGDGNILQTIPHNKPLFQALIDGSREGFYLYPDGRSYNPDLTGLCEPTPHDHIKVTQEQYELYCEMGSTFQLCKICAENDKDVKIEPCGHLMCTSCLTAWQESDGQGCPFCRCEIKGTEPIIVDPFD

Compound	IC50 [1]	IL-2 1 nM [2]	IL-2 10 nM [2]	IL-2 100 nM [2]	IFN-y 1 nM [3]	IFN-y 10 nM [3]	IFN-y 100 nM [3]	CD69 10 nM [4]	CD69 100 nM [4]	CD69 1 nM [4]
CCNc1cc(C2(Cc3nncn3C)COC2)cc(N2Cc3c(cc([C@@H](CSC)N4CCC[C@H](C)C4)cc3C(F)(F)F)C2=O)n1 [Compound 141B, 2-[6-(ethylamino)-4-{3-[(4-methyl-1,2,4-triazol-3-yl)methyl]oxetan-3-yl}pyridin-2-yl]-6-[(1s)-1-[(3S)-3-methylpiperidin-1-yl]-2-(methylsulfanyl)ethyl]-4-(trifluoromethyl)-3H-isoindol-1-one]	5.01 to 20 nM	B (values between 0.31 and 0.79: range “B”)	B (values between 0.31 and 0.79: range “B”)	B (values between 0.31 and 0.79: range “B”)	C (values between 0.10 and 0.30: range “C”)	B (values between 0.31 and 1.00: range “B;”)	B (values between 0.31 and 1.00: range “B;”)	A (values between 0.81 and 1.10: range “A”)	A (values between 0.81 and 1.10: range “A”)	–
Cn1cnnc1CC1(c2cc(NCCC#N)nc(N3Cc4c(cc(CN5CC6(F)CC(CO)(C5)C6)cc4C(F)(F)F)C3=O)c2)COC1.O=C(O)C(F)(F)F [Compound 164, 3-{[6-(6-{[1-fluoro-5-(hydroxymethyl)-3-azabicyclo[3.1.1]heptan-3-yl]methyl}-1-oxo-4-(trifluoromethyl)-3H-isoindol-2-yl)-4-{3-[(4-methyl-1,2,4-triazol-3-yl)methyl]oxetan-3-yl}pyridin-2-yl]amino}propanenitrile; trifluoroacetic acid]	5.01 to 20 nM	C (values between 0.10 and 0.30: range “C”)	C (values between 0.10 and 0.30: range “C”)	C (values between 0.10 and 0.30: range “C”)	C (values between 0.10 and 0.30: range “C”)	C (values between 0.10 and 0.30: range “C”)	B (values between 0.31 and 1.00: range “B;”)	C (values between 0.30 and 0.60: range “C”)	C (values between 0.30 and 0.60: range “C”)	C (values between 0.30 and 0.60: range “C”)
CCNc1cc(C2(Cc3nncn3C)COC2)cc(N2Cc3c(cc(C(CSC)N4CCC[C@H](C)C4)cc3C(F)(F)F)C2=O)n1.O=C(O)C(F)(F)F (stereo partly drawn) [Compound 117, 2-[6-(ethylamino)-4-{3-[(4-methyl-1,2,4-triazol-3-yl)methyl]oxetan-3-yl}pyridin-2-yl]-6-{1-[(3S)-3-methylpiperidin-1-yl]-2-(methylsulfanyl)ethyl}-4-(trifluoromethyl)-3H-isoindol-1-one; trifluoroacetic acid]	20 to 100 nM	C (values between 0.10 and 0.30: range “C”)	C (values between 0.10 and 0.30: range “C”)	C (values between 0.10 and 0.30: range “C”)	C (values between 0.10 and 0.30: range “C”)	C (values between 0.10 and 0.30: range “C”)	B (values between 0.31 and 1.00: range “B;”)	C (values between 0.30 and 0.60: range “C”)	B (values between 0.61 and 0.80: range “B;”)	–
C[C@H]1CCCN(Cc2cc3c(c(C(F)(F)F)c2)CN(c2cc(C4(Cc5nncn5C)COC4)cc(SCC(O)CO)n2)C3=O)C1.O=CO (stereo partly drawn) [Compound 120, 2-{6-[(2,3-dihydroxypropyl)sulfanyl]-4-{3-[(4-methyl-1,2,4-triazol-3-yl)methyl]oxetan-3-yl}pyridin-2-yl}-6-{[(3S)-3-methylpiperidin-1-yl]methyl}-4-(trifluoromethyl)-3H-isoindol-1-one; formic acid]	20 to 100 nM	C (values between 0.10 and 0.30: range “C”)	C (values between 0.10 and 0.30: range “C”)	C (values between 0.10 and 0.30: range “C”)	C (values between 0.10 and 0.30: range “C”)	C (values between 0.10 and 0.30: range “C”)	C (values between 0.10 and 0.30: range “C”)	C (values between 0.30 and 0.60: range “C”)	C (values between 0.30 and 0.60: range “C”)	–
C[C@H]1CCCN(Cc2cc3c(c(C(F)(F)F)c2)CN(c2cc(C4(Cc5nncn5C)COC4)cc(NCc4c[nH]nn4)n2)C3=O)C1.O=C(O)C(F)(F)F [Compound 182, (S)-2-(6-(((1H-1,2,3-triazol-4-yl)methyl)amino)-4-(3-((4-methyl-4H-1,2,4-triazol-3-yl)methyl)oxetan-3-yl)pyridin-2-yl)-6-((3-methylpiperidin-1-yl)methyl)-4-(trifluoromethyl)isoindolin-1-one; trifluoroacetic acid]	5.01 to 20 nM	D (values between 0.01 and 0.09: range “D.”)	D (values between 0.01 and 0.09: range “D.”)	D (values between 0.01 and 0.09: range “D.”)	C (values between 0.10 and 0.30: range “C”)	C (values between 0.10 and 0.30: range “C”)	B (values between 0.31 and 1.00: range “B;”)	C (values between 0.30 and 0.60: range “C”)	C (values between 0.30 and 0.60: range “C”)	C (values between 0.30 and 0.60: range “C”)
CCSc1cc(C2(Cc3nncn3C)COC2)cc(N2Cc3c(NC)cc(CN4CCC[C@H](C)C4)cc3C2=O)n1.O=CO [Compound 130, 2-[6-(ethylsulfanyl)-4-{3-[(4-methyl-1,2,4-triazol-3-yl)methyl]oxetan-3-yl}pyridin-2-yl]-4-(methylamino)-6-{[(3S)-3-methylpiperidin-1-yl]methyl}-3H-isoindol-1-one; formic acid]	5.01 to 20 nM	C (values between 0.10 and 0.30: range “C”)	C (values between 0.10 and 0.30: range “C”)	B (values between 0.31 and 0.79: range “B”)	C (values between 0.10 and 0.30: range “C”)	C (values between 0.10 and 0.30: range “C”)	B (values between 0.31 and 1.00: range “B;”)	C (values between 0.30 and 0.60: range “C”)	B (values between 0.61 and 0.80: range “B;”)	–
Cn1cnnc1CC1(c2cc(NCCC#N)nc(N3Cc4c(cc(CN5CCCC6OCCC65)cc4C(F)(F)F)C3=O)c2)COC1 (stereo not drawn) [Compound 162, 3-{[6-(6-{hexahydro-2H-furo[3,2-b]pyridin-4-ylmethyl}-1-oxo-4-(trifluoromethyl)-3H-isoindol-2-yl)-4-{3-[(4-methyl-1,2,4-triazol-3-yl)methyl]oxetan-3-yl}pyridin-2-yl]amino}propanenitrile]	5.01 to 20 nM	D (values between 0.01 and 0.09: range “D.”)	D (values between 0.01 and 0.09: range “D.”)	D (values between 0.01 and 0.09: range “D.”)	C (values between 0.10 and 0.30: range “C”)	B (values between 0.31 and 1.00: range “B;”)	B (values between 0.31 and 1.00: range “B;”)	C (values between 0.30 and 0.60: range “C”)	C (values between 0.30 and 0.60: range “C”)	C (values between 0.30 and 0.60: range “C”)
